Assay results taken from patent US8158636B2, “Compounds and methods for kinase modulation, and indications therefor” (Plexxikon Inc., priority 2008, dated 2012).

Legend:
Format in all cases: biochemical
[1] = biological target: T1, TEC (Homo sapiens, UniProt P42680); test: Kinase activity assay, TEC; conditions: Table 1l; read-out: activity toward kinase TEC, IC50
T1 sequence (P42680 1-631): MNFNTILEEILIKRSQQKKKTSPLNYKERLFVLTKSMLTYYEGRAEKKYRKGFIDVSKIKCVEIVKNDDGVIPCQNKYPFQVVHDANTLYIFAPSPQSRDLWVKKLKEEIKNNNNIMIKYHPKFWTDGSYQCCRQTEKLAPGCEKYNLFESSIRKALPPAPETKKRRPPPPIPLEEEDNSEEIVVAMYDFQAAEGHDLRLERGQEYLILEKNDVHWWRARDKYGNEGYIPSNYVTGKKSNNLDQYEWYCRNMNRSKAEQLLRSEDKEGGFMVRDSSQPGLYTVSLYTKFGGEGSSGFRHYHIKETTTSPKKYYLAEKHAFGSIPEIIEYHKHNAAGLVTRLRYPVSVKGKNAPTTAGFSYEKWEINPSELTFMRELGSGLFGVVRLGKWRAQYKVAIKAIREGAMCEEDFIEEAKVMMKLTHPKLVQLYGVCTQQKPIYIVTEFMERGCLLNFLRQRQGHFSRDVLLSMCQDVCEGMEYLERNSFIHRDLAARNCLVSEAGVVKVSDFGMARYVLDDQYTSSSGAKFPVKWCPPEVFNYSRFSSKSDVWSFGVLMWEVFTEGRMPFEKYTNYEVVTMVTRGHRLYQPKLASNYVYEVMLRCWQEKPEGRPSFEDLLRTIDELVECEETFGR
Source text: (§1) Assays for the activity of kinases, including, but not limited to, Fms, Kit, B-Raf, B-Raf V600E, c-Raf-1, and TrkA are known in the art, for example as described in US Patent Publication Number US20070032519 and U.S. patent application Ser. No. 11/473,347 (see also, PCT publication WO2007002433), the disclosures of which are hereby incorporated by reference with respect to such assays.

[2] = biological target: Kit (Homo sapiens, UniProt P10721); test: Kinase activity assay, Kit; conditions: Table 1j; read-out: activity toward kinase Kit, IC50
Source text: as §1

[3] = biological target: Fms (Homo sapiens, UniProt P07333); test: Kinase activity assay, Fms; conditions: Table 1h; read-out: activity toward kinase Fms, IC50
Source text: as §1

[4] = biological target: T2, A-Raf (Homo sapiens, UniProt P10398); test: Kinase activity assay, A-Raf; conditions: Table 1a; read-out: activity toward kinase A-Raf, IC50
T2 sequence (P10398 1-606): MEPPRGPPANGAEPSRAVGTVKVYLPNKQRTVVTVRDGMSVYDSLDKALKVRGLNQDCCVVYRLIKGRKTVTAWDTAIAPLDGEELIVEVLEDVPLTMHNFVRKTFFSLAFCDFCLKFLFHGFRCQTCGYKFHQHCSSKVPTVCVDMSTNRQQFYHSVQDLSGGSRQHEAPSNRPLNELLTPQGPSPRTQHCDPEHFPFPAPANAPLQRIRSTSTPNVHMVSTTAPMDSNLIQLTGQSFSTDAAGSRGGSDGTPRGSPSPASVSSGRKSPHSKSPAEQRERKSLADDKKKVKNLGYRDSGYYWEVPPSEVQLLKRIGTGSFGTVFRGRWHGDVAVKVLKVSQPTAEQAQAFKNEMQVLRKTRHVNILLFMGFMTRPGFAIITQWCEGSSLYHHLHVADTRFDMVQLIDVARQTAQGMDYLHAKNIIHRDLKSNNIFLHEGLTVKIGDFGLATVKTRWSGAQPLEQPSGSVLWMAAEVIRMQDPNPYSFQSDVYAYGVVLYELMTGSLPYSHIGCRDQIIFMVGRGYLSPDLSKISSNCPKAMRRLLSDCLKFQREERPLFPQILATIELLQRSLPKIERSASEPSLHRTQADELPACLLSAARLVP
Source text: as §1

[5] = biological target: TrkA (Homo sapiens, UniProt P04629); test: Kinase activity assay, TrkA; conditions: Table 1m; read-out: activity toward kinase TrkA, IC50
Source text: as §1

[6] = biological target: T3, Flt-3 (Homo sapiens, UniProt P36888); test: Kinase activity assay, Flt-3; conditions: Table 1g; read-out: activity toward kinase Flt-3, IC50
T3 sequence (P36888 27-993): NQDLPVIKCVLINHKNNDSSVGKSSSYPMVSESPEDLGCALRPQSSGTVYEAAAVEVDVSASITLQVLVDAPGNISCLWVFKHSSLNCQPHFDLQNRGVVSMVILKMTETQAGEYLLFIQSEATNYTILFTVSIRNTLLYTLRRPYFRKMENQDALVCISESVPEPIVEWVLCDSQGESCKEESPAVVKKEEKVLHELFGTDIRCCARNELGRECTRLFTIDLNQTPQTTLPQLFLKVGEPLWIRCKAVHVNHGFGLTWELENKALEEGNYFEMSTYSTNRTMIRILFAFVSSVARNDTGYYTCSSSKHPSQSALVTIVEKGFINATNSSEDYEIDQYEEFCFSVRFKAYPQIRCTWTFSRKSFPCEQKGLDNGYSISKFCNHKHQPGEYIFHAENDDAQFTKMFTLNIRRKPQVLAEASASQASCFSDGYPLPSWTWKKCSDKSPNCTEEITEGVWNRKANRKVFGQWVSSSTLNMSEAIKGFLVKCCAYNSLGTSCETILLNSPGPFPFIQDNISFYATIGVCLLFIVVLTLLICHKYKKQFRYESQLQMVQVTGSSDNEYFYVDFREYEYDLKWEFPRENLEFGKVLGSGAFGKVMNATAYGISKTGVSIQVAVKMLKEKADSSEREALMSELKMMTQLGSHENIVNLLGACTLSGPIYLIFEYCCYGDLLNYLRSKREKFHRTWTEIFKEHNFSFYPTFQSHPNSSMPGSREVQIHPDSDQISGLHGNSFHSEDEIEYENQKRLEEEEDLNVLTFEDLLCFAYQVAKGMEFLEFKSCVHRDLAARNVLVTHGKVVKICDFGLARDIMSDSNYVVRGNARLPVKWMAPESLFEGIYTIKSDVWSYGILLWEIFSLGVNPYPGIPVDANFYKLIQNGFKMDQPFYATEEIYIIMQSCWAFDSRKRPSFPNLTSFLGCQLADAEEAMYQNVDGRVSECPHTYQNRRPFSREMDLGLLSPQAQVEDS
Source text: as §1

[7] = biological target: Kdr (Homo sapiens, UniProt P35968); test: Kinase activity assay, Kdr; conditions: Table 1i; read-out: activity toward kinase Kdr, IC50
Source text: as §1

[8] = biological target: B-Raf V600E (Homo sapiens, UniProt P15056, V600E); test: Kinase activity assay, B-Raf V600E; conditions: Table 1c; read-out: activity toward kinase B-Raf V600E, IC50
Source text: as §1

[9] = biological target: Flt-1 (Homo sapiens, UniProt P17948); test: Kinase activity assay, Flt-1; conditions: Table 1f; read-out: activity toward kinase Flt-1, IC50
Source text: as §1

Chain of Flt-1 (P17948 27-1338): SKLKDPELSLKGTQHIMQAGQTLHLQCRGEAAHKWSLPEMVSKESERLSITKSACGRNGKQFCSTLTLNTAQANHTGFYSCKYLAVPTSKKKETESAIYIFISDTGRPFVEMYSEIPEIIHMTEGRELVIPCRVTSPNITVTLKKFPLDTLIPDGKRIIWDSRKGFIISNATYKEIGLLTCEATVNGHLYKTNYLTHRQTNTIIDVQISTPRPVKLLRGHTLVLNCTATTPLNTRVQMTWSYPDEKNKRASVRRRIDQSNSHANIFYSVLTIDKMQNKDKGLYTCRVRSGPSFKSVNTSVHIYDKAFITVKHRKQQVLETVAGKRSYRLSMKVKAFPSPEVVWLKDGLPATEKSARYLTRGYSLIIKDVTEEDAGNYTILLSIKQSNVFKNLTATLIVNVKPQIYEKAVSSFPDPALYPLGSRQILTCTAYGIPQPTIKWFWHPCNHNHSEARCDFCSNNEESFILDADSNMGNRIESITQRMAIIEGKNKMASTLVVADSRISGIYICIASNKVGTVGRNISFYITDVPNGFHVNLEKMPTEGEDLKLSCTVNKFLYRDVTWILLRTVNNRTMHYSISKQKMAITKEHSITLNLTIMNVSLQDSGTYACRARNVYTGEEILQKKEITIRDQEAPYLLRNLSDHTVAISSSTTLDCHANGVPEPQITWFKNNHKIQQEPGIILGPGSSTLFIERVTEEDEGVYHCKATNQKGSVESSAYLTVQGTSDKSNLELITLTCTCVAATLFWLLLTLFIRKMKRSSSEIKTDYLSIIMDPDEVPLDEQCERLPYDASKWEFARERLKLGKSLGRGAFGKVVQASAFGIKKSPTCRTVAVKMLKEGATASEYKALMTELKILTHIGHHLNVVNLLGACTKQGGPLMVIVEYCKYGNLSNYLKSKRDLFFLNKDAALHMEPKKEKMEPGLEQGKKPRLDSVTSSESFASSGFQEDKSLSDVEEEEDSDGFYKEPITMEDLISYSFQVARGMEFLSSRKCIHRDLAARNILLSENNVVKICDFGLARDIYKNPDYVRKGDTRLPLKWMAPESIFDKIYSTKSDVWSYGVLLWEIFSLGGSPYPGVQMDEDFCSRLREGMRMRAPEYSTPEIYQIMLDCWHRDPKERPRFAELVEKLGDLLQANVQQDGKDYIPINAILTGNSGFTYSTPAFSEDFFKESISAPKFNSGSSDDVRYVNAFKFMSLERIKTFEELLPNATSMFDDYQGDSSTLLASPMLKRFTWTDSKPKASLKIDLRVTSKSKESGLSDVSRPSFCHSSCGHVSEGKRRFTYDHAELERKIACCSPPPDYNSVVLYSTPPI
Chain of B-Raf V600E (P15056 whole entry V600E): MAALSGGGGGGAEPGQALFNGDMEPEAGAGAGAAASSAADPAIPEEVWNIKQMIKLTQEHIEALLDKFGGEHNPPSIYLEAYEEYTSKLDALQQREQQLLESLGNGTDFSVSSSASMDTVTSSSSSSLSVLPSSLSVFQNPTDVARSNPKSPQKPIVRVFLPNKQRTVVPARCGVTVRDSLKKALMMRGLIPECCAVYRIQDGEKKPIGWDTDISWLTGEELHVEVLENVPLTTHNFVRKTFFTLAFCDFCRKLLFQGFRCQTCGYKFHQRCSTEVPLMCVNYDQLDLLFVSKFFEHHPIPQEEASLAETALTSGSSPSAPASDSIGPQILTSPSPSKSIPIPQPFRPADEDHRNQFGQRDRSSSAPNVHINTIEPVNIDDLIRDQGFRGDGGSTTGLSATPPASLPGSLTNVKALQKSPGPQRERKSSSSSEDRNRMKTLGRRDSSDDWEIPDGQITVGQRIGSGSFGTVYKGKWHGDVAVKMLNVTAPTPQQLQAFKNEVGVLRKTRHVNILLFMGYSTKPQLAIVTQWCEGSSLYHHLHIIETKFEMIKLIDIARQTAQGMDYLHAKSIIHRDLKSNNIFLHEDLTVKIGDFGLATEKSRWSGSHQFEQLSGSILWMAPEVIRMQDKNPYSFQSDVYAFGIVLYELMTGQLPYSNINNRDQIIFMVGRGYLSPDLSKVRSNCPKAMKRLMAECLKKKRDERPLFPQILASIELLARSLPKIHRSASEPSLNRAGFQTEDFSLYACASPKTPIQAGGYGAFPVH
Chain of Kit (P10721 26-976): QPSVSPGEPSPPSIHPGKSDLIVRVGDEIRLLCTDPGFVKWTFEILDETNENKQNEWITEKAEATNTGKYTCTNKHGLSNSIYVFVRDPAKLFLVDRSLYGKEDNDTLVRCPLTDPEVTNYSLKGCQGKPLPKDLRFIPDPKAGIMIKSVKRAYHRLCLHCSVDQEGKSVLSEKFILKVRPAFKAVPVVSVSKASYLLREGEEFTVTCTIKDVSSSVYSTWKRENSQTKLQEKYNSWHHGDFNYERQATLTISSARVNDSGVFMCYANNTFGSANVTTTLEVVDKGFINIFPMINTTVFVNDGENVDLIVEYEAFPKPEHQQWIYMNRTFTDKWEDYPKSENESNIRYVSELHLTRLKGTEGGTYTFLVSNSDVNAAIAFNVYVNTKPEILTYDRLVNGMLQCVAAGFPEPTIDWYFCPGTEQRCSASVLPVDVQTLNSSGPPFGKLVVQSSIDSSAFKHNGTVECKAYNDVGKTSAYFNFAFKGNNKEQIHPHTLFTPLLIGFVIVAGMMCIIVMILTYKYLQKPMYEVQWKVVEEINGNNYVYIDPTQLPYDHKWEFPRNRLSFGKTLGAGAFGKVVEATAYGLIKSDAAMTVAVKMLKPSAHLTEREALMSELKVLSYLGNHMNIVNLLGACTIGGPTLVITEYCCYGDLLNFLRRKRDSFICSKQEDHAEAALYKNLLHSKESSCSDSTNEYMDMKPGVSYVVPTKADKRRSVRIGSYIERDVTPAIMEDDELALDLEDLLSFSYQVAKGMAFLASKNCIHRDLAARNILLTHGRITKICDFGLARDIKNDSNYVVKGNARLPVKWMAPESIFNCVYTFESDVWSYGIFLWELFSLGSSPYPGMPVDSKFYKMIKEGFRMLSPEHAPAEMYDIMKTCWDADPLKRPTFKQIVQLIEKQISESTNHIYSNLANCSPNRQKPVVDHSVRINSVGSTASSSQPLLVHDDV
Chain of TrkA (P04629 33-796): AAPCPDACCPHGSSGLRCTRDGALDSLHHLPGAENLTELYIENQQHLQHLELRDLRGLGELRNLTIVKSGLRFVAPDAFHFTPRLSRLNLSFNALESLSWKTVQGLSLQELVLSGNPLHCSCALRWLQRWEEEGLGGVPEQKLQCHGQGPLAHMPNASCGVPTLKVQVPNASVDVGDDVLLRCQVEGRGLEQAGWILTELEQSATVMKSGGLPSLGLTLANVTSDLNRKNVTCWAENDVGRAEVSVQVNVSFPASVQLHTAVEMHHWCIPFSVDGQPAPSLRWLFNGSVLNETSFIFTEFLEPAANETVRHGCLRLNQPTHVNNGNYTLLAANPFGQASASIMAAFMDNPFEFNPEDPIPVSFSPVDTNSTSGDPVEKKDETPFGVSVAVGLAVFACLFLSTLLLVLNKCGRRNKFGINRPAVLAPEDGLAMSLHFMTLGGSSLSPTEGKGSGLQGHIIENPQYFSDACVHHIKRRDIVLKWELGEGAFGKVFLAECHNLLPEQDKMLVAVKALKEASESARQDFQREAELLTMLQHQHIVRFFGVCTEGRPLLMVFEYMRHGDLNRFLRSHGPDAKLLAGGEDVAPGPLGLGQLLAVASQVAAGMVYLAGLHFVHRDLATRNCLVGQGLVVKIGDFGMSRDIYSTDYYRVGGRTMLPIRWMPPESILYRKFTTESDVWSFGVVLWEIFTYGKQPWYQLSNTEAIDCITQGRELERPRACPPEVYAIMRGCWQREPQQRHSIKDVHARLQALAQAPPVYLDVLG
Chain of Fms (P07333 20-972): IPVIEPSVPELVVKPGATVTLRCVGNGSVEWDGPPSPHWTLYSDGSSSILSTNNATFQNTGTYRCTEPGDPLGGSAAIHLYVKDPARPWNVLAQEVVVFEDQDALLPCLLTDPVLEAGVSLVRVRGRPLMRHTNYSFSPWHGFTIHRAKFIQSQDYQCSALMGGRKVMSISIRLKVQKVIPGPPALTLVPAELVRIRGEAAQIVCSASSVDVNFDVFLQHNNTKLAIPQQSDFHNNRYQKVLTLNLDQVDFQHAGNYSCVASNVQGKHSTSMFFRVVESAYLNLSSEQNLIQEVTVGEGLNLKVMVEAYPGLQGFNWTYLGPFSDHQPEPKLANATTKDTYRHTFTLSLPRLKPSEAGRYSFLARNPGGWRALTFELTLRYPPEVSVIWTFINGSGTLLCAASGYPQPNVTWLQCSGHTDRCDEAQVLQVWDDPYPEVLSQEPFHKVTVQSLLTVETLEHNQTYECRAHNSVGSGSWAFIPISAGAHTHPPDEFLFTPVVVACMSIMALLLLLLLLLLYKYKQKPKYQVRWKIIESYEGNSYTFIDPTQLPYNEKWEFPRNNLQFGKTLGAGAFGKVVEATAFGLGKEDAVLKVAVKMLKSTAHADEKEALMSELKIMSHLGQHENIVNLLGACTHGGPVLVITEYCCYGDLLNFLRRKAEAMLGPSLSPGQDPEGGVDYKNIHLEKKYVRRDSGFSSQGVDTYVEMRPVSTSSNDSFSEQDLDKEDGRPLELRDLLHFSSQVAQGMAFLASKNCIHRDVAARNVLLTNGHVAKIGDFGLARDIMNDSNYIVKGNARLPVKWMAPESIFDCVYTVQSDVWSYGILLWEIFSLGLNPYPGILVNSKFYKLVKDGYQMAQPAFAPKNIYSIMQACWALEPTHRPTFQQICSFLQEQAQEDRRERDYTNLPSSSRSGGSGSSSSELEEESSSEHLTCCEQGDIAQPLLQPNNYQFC

| IC50 [1] | IC50 [2] | IC50 [3] | IC50 [4] | IC50 [5] | IC50 [6] | IC50 [7] | IC50 [8] | IC50 [9] | SMILES |
| --- | --- | --- | --- | --- | --- | --- | --- | --- | --- |
| ≤ 10 µM | ≤ 10 µM | ≤ 10 µM | ≤ 10 µM | ≤ 10 µM | ≤ 10 µM | ≤ 10 µM | ≤ 10 µM | ≤ 10 µM | Clc1ccc(CNc2ccc(Cc3c[nH]c4ncncc34)cn2)cc1 [P-0001, (4-Chloro-benzyl)-[5-(7H-pyrrolo[2,3-d]pyrimidin-5-ylmethyl)-pyridin-2-yl]-amine] |
| ≤ 10 µM | ≤ 10 µM | ≤ 10 µM | ≤ 10 µM | ≤ 10 µM | ≤ 10 µM | – | ≤ 10 µM | ≤ 10 µM | Clc1ccccc1CNc1ccc(Cc2c[nH]c3ncncc23)cn1 [P-0003, (2-Chloro-benzyl)-[5-(7H-pyrrolo[2,3-d]pyrimidin-5-ylmethyl)-pyridin-2-yl]-amine] |
